Read-outs that look alike come from different tables or passages of the source.
Columns and labels:
[1] = system: MOLT4; experiment: cytotoxicity to tumor cell line MOLT4; format: cell-based, human
Description: (§1) Cytotoxicity to human tumor cell lines was examined as follows:
(§2) Cells of human cell lines, K562, MOLT4, U937, HL60, KATOIII, KB, PC-6, PC-14 and CCRF-CEM were separately suspended to the concentration of 2×10^5 cells/ml in the RPMI1640 culture medium supplemented with 20% FCS. Fifty μl of this suspension was added to each well of 96-well microculture plates to which 50 μl of the test solution had been added. After culturing at 37° C. in an atmosphere of 5% carbon dioxide for 72 hours, the absorbancy at 550 nm was measured in the same way as the colorimetry using MTT in Experimental Example 1, and the percent suppression was calculated in the same manner as in Experimental Example 14, which was used as the index of cytotoxicity.

[2] = cytotoxicity to tumor cell line MOLT4; format: cell-based, human; details: human, molt4 cells, 0.1 μg/ml; read-out: Suppression
Description: as §1, §2

[3] = system: mouse L929 cells; experiment: cytotoxicity to mouse L929 cells; format: cell-based; details: 550 nm
Description: Cytotoxicity to mouse L929 cells was assayed as follows:
L929 cells were suspended to the concentration of 1.5×10^5 cells/ml in the F12 culture medium supplemented with 10% FCS. One hundred μl of the suspension was added to each well of 96-well microculture plates, and cultured at 37° C. in an atmosphere of 5% carbon dioxide for 24 hours, to which 100 μl of the test solution was added and cultured for further 48 hours. After the culture, 100 μl of the supernatant was removed and the absorbancy at 550 nm was measured in the same way as the colormetry using MTT in Experimental Example 1. The percent suppression was calculated by the following formula used as the index of cytotoxicity. [formula]

[4] = system: PC-14; experiment: in vitro; format: cell-based, human
Description: as §1, §2

[5] = system: KB; experiment: in vitro; format: cell-based, human
Description: as §1, §2

[6] = in vitro; format: cell-based, human; details: human, 1.0 μg/ml, read-out: Suppression
Description: as §1, §2

[7] = system: U937; experiment: in vitro; format: cell-based, human
Description: as §1, §2

[8] = system: K562; experiment: in vitro; format: cell-based, human
Description: as §1, §2

[9] = system: HL60; experiment: in vitro; format: cell-based, human
Description: as §1, §2

[10] = system: CCRF-CEM; experiment: in vitro; format: cell-based, human
Description: as §1, §2

[11] = system: IL2-dependent mouse cell line CTLL-2; experiment: suppression of IL-2 induced 3H-thymidine incorporation of CTLL-2; format: cell-based; details: for inhibition at 0.1 µg/mL / inhibition at 10 µg/mL / inhibition at 0.01 µg/mL / inhibition at 1 µg/mL: Mus musculus; for inhibition at 0.1 µg/mL / inhibition at 10 µg/mL / inhibition at 0.01 µg/mL: read-out: Suppression
Description: IL2-dependent mouse cell line CTLL-2 cells were suspended in the RPMI1640 culture medium supplemented with 30% FCS to a concentration of 2×10^5 cells/ml. The suspension (50 μl) and 50 μl of concanavalin A-stimulated rat spleen cell culture supernatants containing IL2 were added to each well of 96-well microculture plates in which 100 μl of the test substance had been placed. After culturing at 37° C. in an atmosphere of 5% carbon dioxide for 20, 44, or 68 hours, 0.5 μCi/well of ^3 H-thymidine was added, and cultured for 4 hours under the same conditions. After termination of the culture, the cells were harvested by a cell harvester, and the radioactivity incorporated into the cells was measured by a liquid scintillation counter.

Question: For CCCCCCC(=O)CCCCCC/C=C/CC(O)C(O)C(N)(CO)C(=O)O (stereo not shown) [Example 1], which Absorbancy ([1]; 0.1 μg/ml) is on record?
Answer: The Absorbancy was 0.560.

Question: What about the Absorbancy ([1]; 1.0 μg/ml) of the same molecule?
Answer: Its Absorbancy is 0.559.

Question: What about the Absorbancy ([1]; 10.0 μg/ml) of the same molecule?
Answer: Its Absorbancy is 0.499.

Question: And the Absorbancy ([1]; 100.0 μg/ml)?
Answer: Its Absorbancy is 0.074.

Question: What about the cytotoxicity at 72 h [2] of the same molecule?
Answer: Its cytotoxicity at 72 h is 9.4%.

Question: And the Absorbancy ([3]; 1 μg/ml)?
Answer: Its Absorbancy is 0.699.

Question: What about the Absorbancy ([3]; 10 μg/ml) of the same molecule?
Answer: The Absorbancy was 0.693.

Question: And the Absorbancy ([3]; 100 μg/ml)?
Answer: The Absorbancy was 0.321.

Question: What about the Absorbancy ([4]; 0.01 μg/ml) of the same molecule?
Answer: The Absorbancy was 0.801.

Question: What about the Absorbancy ([4]; 0.1 μg/ml) of the same molecule?
Answer: The Absorbancy was 0.770.

Question: What about the Absorbancy ([4]; 1.0 μg/ml) of the same molecule?
Answer: Its Absorbancy is 0.732.

Question: And the Absorbancy ([4]; 10.0 μg/ml)?
Answer: Its Absorbancy is 0.751.

Question: And the Absorbancy ([4]; 100.0 μg/ml)?
Answer: The Absorbancy was 0.074.

Question: What about the Absorbancy ([5]; 0.01 μg/ml) of the same molecule?
Answer: Its Absorbancy is 0.898.

Question: What about the Absorbancy ([5]; 0.1 μg/ml) of the same molecule?
Answer: Its Absorbancy is 0.865.

Question: What about the Absorbancy ([5]; 1.0 μg/ml) of the same molecule?
Answer: Its Absorbancy is 0.879.

Question: What about the Absorbancy ([5]; 10.0 μg/ml) of the same molecule?
Answer: The Absorbancy was 0.886.

Question: What about the Absorbancy ([5]; 100.0 μg/ml) of the same molecule?
Answer: The Absorbancy was 0.025.

Question: And the cytotoxicity at 72 h ([6]; hl60 cells)?
Answer: The cytotoxicity at 72 h was 38.2%.

Question: And the cytotoxicity at 72 h ([6]; pc-14 cells)?
Answer: Its cytotoxicity at 72 h is 7%.

Question: What about the Absorbancy ([7]; 0.1 μg/ml) of the same molecule?
Answer: Its Absorbancy is 0.619.

Question: What about the Absorbancy ([7]; 1.0 μg/ml) of the same molecule?
Answer: The Absorbancy was 0.567.

Question: And the Absorbancy ([7]; 10.0 μg/ml)?
Answer: Its Absorbancy is 0.497.

Question: What about the Absorbancy ([7]; 100.0 μg/ml) of the same molecule?
Answer: Its Absorbancy is 0.156.

Question: What about the Absorbancy ([8]; 0.1 μg/ml) of the same molecule?
Answer: Its Absorbancy is 0.886.

Question: And the Absorbancy ([8]; 1.0 μg/ml)?
Answer: Its Absorbancy is 0.905.

Question: What about the Absorbancy ([8]; 10.0 μg/ml) of the same molecule?
Answer: The Absorbancy was 0.929.

Question: And the Absorbancy ([8]; 100.0 μg/ml)?
Answer: Its Absorbancy is 0.583.

Question: And the Absorbancy ([9]; 0.1 μg/ml)?
Answer: The Absorbancy was 0.402.

Question: What about the Absorbancy ([9]; 1.0 μg/ml) of the same molecule?
Answer: Its Absorbancy is 0.390.

Question: And the Absorbancy ([9]; 10.0 μg/ml)?
Answer: The Absorbancy was 0.377.

Question: What about the Absorbancy ([9]; 100.0 μg/ml) of the same molecule?
Answer: The Absorbancy was 0.101.

Question: And the Absorbancy ([10]; 0.01 μg/ml)?
Answer: Its Absorbancy is 0.678.

Question: And the Absorbancy ([10]; 0.1 μg/ml)?
Answer: The Absorbancy was 0.709.

Question: What about the Absorbancy ([10]; 1.0 μg/ml) of the same molecule?
Answer: The Absorbancy was 0.660.

Question: And the Absorbancy ([10]; 10.0 μg/ml)?
Answer: The Absorbancy was 0.637.

Question: What about the Absorbancy ([10]; 100.0 μg/ml) of the same molecule?
Answer: The Absorbancy was 0.013.

Question: What about the 3H-thymidine uptake ([11]; 24 hrs, 0.01 μg/ml) of the same molecule?
Answer: Its 3H-thymidine uptake is 6003 cpm.

Question: And the 3H-thymidine uptake ([11]; 24 hrs, 0.1 μg/ml)?
Answer: Its 3H-thymidine uptake is 3722 cpm.

Question: What about the 3H-thymidine uptake ([11]; 24 hrs, 1 μg/ml) of the same molecule?
Answer: The 3H-thymidine uptake was 3977 cpm.

Question: What about the 3H-thymidine uptake ([11]; 24 hrs, 10 μg/ml) of the same molecule?
Answer: Its 3H-thymidine uptake is 1968 cpm.

Question: What about the 3H-thymidine uptake ([11]; 48 hrs, 0.01 μg/ml) of the same molecule?
Answer: Its 3H-thymidine uptake is 19592 cpm.

Question: What about the 3H-thymidine uptake ([11]; 48 hrs, 0.1 μg/ml) of the same molecule?
Answer: The 3H-thymidine uptake was 7324 cpm.

Question: And the 3H-thymidine uptake ([11]; 48 hrs, 1 μg/ml)?
Answer: Its 3H-thymidine uptake is 4794 cpm.

Question: And the 3H-thymidine uptake ([11]; 48 hrs, 10 μg/ml)?
Answer: The 3H-thymidine uptake was 1649 cpm.

Question: And the 3H-thymidine uptake ([11]; 72 hrs, 0.01 μg/ml, control 78515 cpm)?
Answer: The 3H-thymidine uptake was 56688 cpm.

Question: And the 3H-thymidine uptake ([11]; 72 hrs, 0.1 μg/ml, control 78515 cpm)?
Answer: The 3H-thymidine uptake was 2436 cpm.

Question: What about the 3H-thymidine uptake ([11]; 72 hrs, 1 μg/ml, control 78515 cpm) of the same molecule?
Answer: Its 3H-thymidine uptake is 846 cpm.

Question: What about the 3H-thymidine uptake ([11]; 72 hrs, 10 μg/ml, control 78515 cpm) of the same molecule?
Answer: Its 3H-thymidine uptake is 478 cpm.

Question: And the inhibition at 0.1 µg/mL ([11]; CTLL-2, 24 h)?
Answer: Its inhibition at 0.1 µg/mL is 45.5%.

Question: And the inhibition at 10 µg/mL ([11]; CTLL-2, 72 h)?
Answer: The inhibition at 10 µg/mL was 100%.

Question: And the inhibition at 0.01 µg/mL ([11]; CTLL-2, 24 hrs, 0.01 μg/ml)?
Answer: The inhibition at 0.01 µg/mL was 10.3%.

Question: What about the inhibition at 1 µg/mL ([11]; CTLL-2, 24 hrs, 1 μg/ml) of the same molecule?
Answer: The inhibition at 1 µg/mL was 41.5%.

Question: What about the inhibition at 10 µg/mL ([11]; CTLL-2, 24 hrs, 10 μg/ml) of the same molecule?
Answer: Its inhibition at 10 µg/mL is 72.5%.

Question: What about the inhibition at 0.01 µg/mL ([11]; CTLL-2, 48 hrs, 0.01 μg/ml) of the same molecule?
Answer: Its inhibition at 0.01 µg/mL is 22.7%.

Question: What about the inhibition at 0.1 µg/mL ([11]; CTLL-2, 48 hrs, 0.1 μg/ml) of the same molecule?
Answer: The inhibition at 0.1 µg/mL was 72.2%.

Question: And the inhibition at 1 µg/mL ([11]; CTLL-2, 48 hrs, 1 μg/ml)?
Answer: The inhibition at 1 µg/mL was 82.4%.

Question: And the inhibition at 10 µg/mL ([11]; CTLL-2, 48 hrs, 10 μg/ml)?
Answer: Its inhibition at 10 µg/mL is 95.1%.

Question: And the inhibition at 0.01 µg/mL ([11]; CTLL-2, 72 hrs, 0.01 μg/ml, control 78515 cpm)?
Answer: Its inhibition at 0.01 µg/mL is 28%.

Question: And the inhibition at 0.1 µg/mL ([11]; CTLL-2, 72 hrs, 0.1 μg/ml, control 78515 cpm)?
Answer: Its inhibition at 0.1 µg/mL is 97.7%.

Question: And the inhibition at 1 µg/mL ([11]; CTLL-2, 72 hrs, 1 μg/ml, control 78515 cpm)?
Answer: Its inhibition at 1 µg/mL is 99.8%.

Reference: patent US5219884A, “Immunosuppressant” (Taito Co., Ltd., priority 1990, dated 1993)
